Where “and” joins values, the source holds several entries; their conditions need not be identical. Equal entries are not always repeated. Numbers after ± are expanded uncertainties.
Settings: Liquid, Transpiration method

CC(=O)C(=O)O [2-oxopropanoic acid]
Settings | vapor or sublimation pressure
308.2 K | 0.2899 ± 0.018 kPa
313.3 K | 0.3753 ± 0.023 kPa and 0.3771 ± 0.023 kPa
315.9 K | 0.434 ± 0.027 kPa
316.8 K | 0.45 ± 0.028 kPa
318.3 K | 0.509 ± 0.032 kPa
320.9 K | 0.599 ± 0.038 kPa and 0.597 ± 0.037 kPa
325.8 K | 0.798 ± 0.05 kPa
330.8 K | 1.092 ± 0.068 kPa
333.2 K | 1.274 ± 0.08 kPa
336.4 K | 1.519 ± 0.094 kPa

COC(=O)C(C)=O [methyl 2-oxopropanoate]
Settings | vapor or sublimation pressure
279.4 K | 0.177 ± 0.011 kPa and 0.1749 ± 0.011 kPa
280.9 K | 0.1942 ± 0.012 kPa
282.4 K | 0.2279 ± 0.015 kPa
283.8 K | 0.2536 ± 0.016 kPa
286.2 K | 0.2982 ± 0.019 kPa and 0.293 ± 0.018 kPa
287 K | 0.3042 ± 0.019 kPa
289.2 K | 0.3569 ± 0.023 kPa
291 K | 0.426 ± 0.027 kPa
294.9 K | 0.527 ± 0.033 kPa
298.9 K | 0.706 ± 0.045 kPa
302.9 K | 0.919 ± 0.058 kPa
307.8 K | 1.227 ± 0.077 kPa

Reference: the NIST ThermoML archive (doi:10.1016/j.tca.2018.05.009)
